Laboratory results as given in ChEMBL document CHEMBL3045398, “Fungicidal activities of cyflufenamid against various plant-pathogenic fungi” (J Pestic Sci, 2006).
The source made the active and inactive calls. No cut-off for these calls is given here.

Tests used:
Pyricularia oryzae = assay: Fungicidal activity against Magnaporthe oryzae assessed as inhibition of mycelial growth measured after 3 to 20 days by agar dilution method; type: functional, organism-based
Oculimacula yallundae = assay: Fungicidal activity against Oculimacula yallundae assessed as inhibition of mycelial growth measured after 3 to 20 days by agar dilution method; type: functional, organism-based
Phytophthora infestans = assay: Fungicidal activity against Phytophthora infestans assessed as inhibition of mycelial growth measured after 3 to 20 days by agar dilution method; type: functional, organism-based
Phomopsis = assay: Fungicidal activity against Phomopsis sp. assessed as inhibition of mycelial growth measured after 3 to 20 days by agar dilution method; type: functional, organism-based
Pestalotia longiseta = assay: Fungicidal activity against Pestalotia longiseta assessed as inhibition of mycelial growth measured after 3 to 20 days by agar dilution method; type: functional, organism-based, Pestalotiopsis longiseta
Penicillium italicum = assay: Fungicidal activity against Penicillium italicum assessed as inhibition of mycelial growth measured after 3 to 20 days by agar dilution method; type: functional, organism-based
Monilinia fructicola [1] = assay: Fungicidal activity against Monilinia fructicola assessed as inhibition of mycelial growth measured after 3 to 20 days by agar dilution method; type: functional, organism-based
Helicobasidium mompa = assay: Fungicidal activity against Helicobasidium mompa assessed as inhibition of mycelial growth measured after 3 to 20 days by agar dilution method; type: functional, organism-based
[2] = test system: Blumeria graminis f. sp. tritici; assay: Fungicidal activity against Blumeria graminis f. sp. tritici on wheat leaves assessed as spore formation measured at 12.5 ppm; type: functional
Monilinia fructicola [3] = assay: Fungicidal activity against Monilinia fructicola assessed as vacuolated hyphae measured by Transmission electron microscopy; type: functional, organism-based
Monilinia fructicola [4] = assay: Fungicidal activity against Monilinia fructicola assessed as rounded hyphae and various size vessicles measured by Transmission electron microscopy; type: functional, organism-based
Monilinia fructicola [5] = assay: Fungicidal activity against Monilinia fructicola assessed as large septa measured by Transmission electron microscopy; type: functional, organism-based
Monilinia fructicola [6] = assay: Fungicidal activity against Monilinia fructicola assessed as number and shape of mitochondria measured by Transmission electron microscopy relative to untreated control; type: functional, organism-based
[7] = test system: Blumeria graminis f. sp. tritici; assay: Fungicidal activity against Blumeria graminis f. sp. tritici on wheat leaves assessed as spore formation measured at 0.2 ppm; type: functional
[8] = test system: Blumeria graminis f. sp. tritici; assay: Fungicidal activity against Blumeria graminis f. sp. tritici on wheat leaves assessed as spore formation measured at 0.8 ppm; type: functional
[9] = test system: Blumeria graminis f. sp. tritici; assay: Fungicidal activity against Blumeria graminis f. sp. tritici on wheat leaves assessed as spore formation measured at 3.1 ppm; type: functional
[10] = test system: Blumeria graminis f. sp. tritici; assay: Fungicidal activity against Blumeria graminis f. sp. tritici on wheat leaves assessed as rate of appressorium formation measured at 0.2 ppm after 76 hr; type: functional
[11] = test system: Blumeria graminis f. sp. tritici; assay: Fungicidal activity against Blumeria graminis f. sp. tritici on wheat leaves assessed as rate of appressorium formation measured at 0.8 ppm after 76 hr; type: functional
[12] = test system: Blumeria graminis f. sp. tritici; assay: Fungicidal activity against Blumeria graminis f. sp. tritici on wheat leaves assessed as rate of appressorium formation measured at 3.1 ppm after 76 hr; type: functional
[13] = test system: Blumeria graminis f. sp. tritici; assay: Fungicidal activity against Blumeria graminis f. sp. tritici on wheat leaves assessed as rate of appressorium formation measured at 12.5 ppm after 76 hr; type: functional
[14] = test system: Blumeria graminis f. sp. tritici; assay: Fungicidal activity against Blumeria graminis f. sp. tritici on wheat leaves assessed as rate of appressorium formation measured at 12.5 ppm after 24 hr (reference value: 89.7 +/- 4%); type: functional
[15] = test system: Blumeria graminis f. sp. tritici; assay: Fungicidal activity against Blumeria graminis f. sp. tritici on wheat leaves assessed as rate of appressorium formation measured at 12.5 ppm after 12 hr (reference value: 22.3 +/- 10.2%); type: functional
[16] = test system: Blumeria graminis f. sp. tritici; assay: Fungicidal activity against Blumeria graminis f. sp. tritici on wheat leaves assessed as rate of appressorium formation measured at 12.5 ppm after 6 hr (reference value: 3.5 +/- 2.5%); type: functional
[17] = test system: Blumeria graminis f. sp. tritici; assay: Fungicidal activity against Blumeria graminis f. sp. tritici on wheat leaves assessed as rate of appressorium formation measured at 12.5 ppm after 3 hr (reference value: 1.7 +/- 1.4%); type: functional
[18] = test system: Blumeria graminis f. sp. tritici; assay: Fungicidal activity against Blumeria graminis f. sp. tritici on wheat leaves assessed as rate of spore germination measured at 12.5 ppm after 24 hr (reference value: 72.2 +/- 4.2%); type: functional
[19] = test system: Blumeria graminis f. sp. tritici; assay: Fungicidal activity against Blumeria graminis f. sp. tritici on wheat leaves assessed as rate of spore germination measured at 12.5 ppm after 12 hr (reference value: 67.4 +/- 8.6%); type: functional
[20] = test system: Blumeria graminis f. sp. tritici; assay: Fungicidal activity against Blumeria graminis f. sp. tritici on wheat leaves assessed as rate of spore germination measured at 12.5 ppm after 6 hr (reference value: 49.8 +/- 17.3%); type: functional
[21] = test system: Blumeria graminis f. sp. tritici; assay: Fungicidal activity against Blumeria graminis f. sp. tritici on wheat leaves assessed as rate of spore germination measured at 12.5 ppm after 3 hr (reference value: 22.5 +/- 7.6%); type: functional
Verticillium dahliae = assay: Fungicidal activity against Verticillium dahliae assessed as inhibition of mycelial growth measured after 3 to 20 days by agar dilution method; type: functional, organism-based
Venturia inaequalis = assay: Fungicidal activity against Venturia inaequalis assessed as inhibition of mycelial growth measured after 3 to 20 days by agar dilution method; type: functional, organism-based
Cytospora ceratosperma = assay: Fungicidal activity against Valsa ceratosperma assessed as inhibition of mycelial growth measured after 3 to 20 days by agar dilution method; type: functional, organism-based
Trichoderma viride = assay: Fungicidal activity against Hypocrea rufa assessed as inhibition of mycelial growth measured after 3 to 20 days by agar dilution method; type: functional, organism-based
Parastagonospora nodorum = assay: Fungicidal activity against Phaeosphaeria nodorum assessed as inhibition of mycelial growth measured after 3 to 20 days by agar dilution method; type: functional, organism-based
Taphrina deformans = assay: Fungicidal activity against Taphrina deformans assessed as inhibition of mycelial growth measured after 3 to 20 days by agar dilution method; type: functional, organism-based
Sclerotinia sclerotiorum = assay: Fungicidal activity against Sclerotinia sclerotiorum assessed as inhibition of mycelial growth measured after 3 to 20 days by agar dilution method; type: functional, organism-based
Rosellinia necatrix = assay: Fungicidal activity against Rosellinia necatrix assessed as inhibition of mycelial growth measured after 3 to 20 days by agar dilution method; type: functional, organism-based
Rhizoctonia solani = assay: Fungicidal activity against Rhizoctonia solani assessed as inhibition of mycelial growth measured after 3 to 20 days by agar dilution method; type: functional, organism-based
Pythium aphanidermatum = assay: Fungicidal activity against Pythium aphanidermatum assessed as inhibition of mycelial growth measured after 3 to 20 days by agar dilution method; type: functional, organism-based
[22] = test system: Blumeria graminis f. sp. tritici; assay: Fungicidal activity against Blumeria graminis f. sp. tritici on wheat leaves assessed as colony formation measured at 0.2 ppm; type: functional
[23] = test system: Blumeria graminis f. sp. tritici; assay: Fungicidal activity against Blumeria graminis f. sp. tritici on wheat leaves assessed as colony formation measured at 0.8 ppm; type: functional
[24] = test system: Blumeria graminis f. sp. tritici; assay: Fungicidal activity against Blumeria graminis f. sp. tritici on wheat leaves assessed as colony formation measured at 3.1 ppm; type: functional
[25] = test system: Blumeria graminis f. sp. tritici; assay: Fungicidal activity against Blumeria graminis f. sp. tritici on wheat leaves assessed as colony formation measured at 12.5 ppm; type: functional

## O=C(Cc1ccccc1)N/C(=N\OCC1CC1)c1c(C(F)(F)F)ccc(F)c1F [CYFLUFENAMID]
Pyricularia oryzae
  EC50: 3 ppm
Oculimacula yallundae
  EC50: > 100 ppm
Phytophthora infestans
  EC50: > 100 ppm
Phomopsis
  EC50: > 100 ppm
Pestalotia longiseta
  EC50: > 100 ppm
Penicillium italicum
  EC50: 7 ppm
Monilinia fructicola [1]
  EC50: 0.01 ppm
Helicobasidium mompa
  EC50: > 100 ppm
[2]
  inhibition at 12.5 ppm: 100%
Monilinia fructicola [3]
  Activity: Active
Monilinia fructicola [4]
  Activity: Active
Monilinia fructicola [5]
  Activity: Active
Monilinia fructicola [6]
  Activity: inactive
[7]
  inhibition at 0.2 ppm: 97%
[8]
  inhibition at 0.8 ppm: 100%
[9]
  inhibition at 3.1 ppm: 100%
[10]
  inhibition at 0.2 ppm: 77.6%
[11]
  inhibition at 0.8 ppm: 96.4%
[12]
  inhibition at 3.1 ppm: 99.4%
[13]
  inhibition at 12.5 ppm: 100%
[14]
  Activity: 87.9%
[15]
  Activity: 28.1%
[16]
  Activity: 0.4%
[17]
  Activity: 0.3%
[18]
  Activity: 61.5%
[19]
  Activity: 60.7%
[20]
  Activity: 47.6%
[21]
  Activity: 19.8%
Verticillium dahliae
  EC50: > 100 ppm
Venturia inaequalis
  EC50: > 100 ppm
Cytospora ceratosperma
  EC50: 8 ppm
Trichoderma viride
  EC50: > 100 ppm
Parastagonospora nodorum
  EC50: > 100 ppm
Taphrina deformans
  EC50: 3 ppm
Sclerotinia sclerotiorum
  EC50: 1 ppm
Rosellinia necatrix
  EC50: 0.7 ppm
Rhizoctonia solani
  EC50: > 100 ppm
Pythium aphanidermatum
  EC50: > 100 ppm
[22]
  inhibition at 0.2 ppm: 81.2%
[23]
  inhibition at 0.8 ppm: 96.9%
[24]
  inhibition at 3.1 ppm: 100%
[25]
  inhibition at 12.5 ppm: 100%
